Target: IDH1 R132H (Homo sapiens, UniProt O75874, R132H)
Assay: In vitro assay for IDH1 R132H inhibitors (NADPH/aKG, resazurin detection)
Type: biochemical
Conditions: Table 4B; 0.2 μg/ml IDH1 R132H, 50 minutes at room temperature; read-out: IC50, IDH1 R132H Inhibition
Protocol: Assays were conducted in a volume of 76 μl assay buffer (150 mM NaCl, 10 mM MgCl2, 20 mM Tris pH 7.5, 0.03% bovine serum albumin) as follows in a standard 384-well plate: To 25 ul of substrate mix (8 uM NADPH, 2 mM aKG), 1 μl of test compound was added in DMSO. The plate was centrifuged briefly, and then 25 μl of enzyme mix was added (0.2 μg/ml IDH1 R132H) followed by a brief centrifugation and shake at 100 RPM. The reaction was incubated for 50 minutes at room temperature, then 25 μl of detection mix (30 μM resazurin, […]) was added and the mixture further incubated for 5 minutes at room temperature. The conversion of resazurin to resorufin was detected by fluorescent spectroscopy at Ex544 Em590 c/o 590.
The compounds of Formula I set forth in Table 1 and the compounds set forth in Table 2 were tested in this assay and the results set forth below in Table 4A and 4B.

Chain of IDH1 R132H (O75874 whole entry R132H): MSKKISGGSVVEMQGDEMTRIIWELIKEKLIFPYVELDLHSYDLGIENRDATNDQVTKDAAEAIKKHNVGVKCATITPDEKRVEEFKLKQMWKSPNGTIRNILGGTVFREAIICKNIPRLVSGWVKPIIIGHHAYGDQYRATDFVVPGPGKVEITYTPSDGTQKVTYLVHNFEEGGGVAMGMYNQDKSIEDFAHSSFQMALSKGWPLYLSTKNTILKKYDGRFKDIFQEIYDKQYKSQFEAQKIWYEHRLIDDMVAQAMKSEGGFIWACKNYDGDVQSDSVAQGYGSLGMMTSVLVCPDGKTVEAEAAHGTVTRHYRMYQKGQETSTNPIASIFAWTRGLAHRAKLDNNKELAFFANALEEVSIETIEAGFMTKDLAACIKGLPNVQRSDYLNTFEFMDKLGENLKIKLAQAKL

SMILES | IC50 [nM]
Cc1ccccc1C(C(=O)NC1CCCCC1)N(C(=O)Cc1c[nH]c2ccccc12)c1cccc(F)c1 (centres unmarked) [Compound 126] | ≤ 100
Cc1ccccc1C(C(=O)NC1CCCCC1)N(C(=O)Cn1cnc2ccccc21)c1cccc(F)c1 (centres unmarked) [Compound 135] | ≤ 100
O=C(NC1CCCCC1)C(c1cccc(F)c1)N(C(=O)Cc1cccs1)c1cccc(F)c1 (centres unmarked) [Compound 137] | 100 to 1000
Cc1ccccc1C(C(=O)NC1CCCCC1)N(C(=O)c1cccs1)c1cccc(F)c1 (centres unmarked) [Compound 138] | 100 to 1000
Cc1ccccc1C(C(=O)NC1CCCCC1)N(C(=O)c1c(C)noc1C)c1cccc(F)c1 (centres unmarked) [Compound 139] | 100 to 1000
Cc1ccccc1C(C(=O)NC1CCCCC1)N(C(=O)Cc1cccs1)c1cccc(Cl)c1 (centres unmarked) [Compound 140] | ≤ 100
Cc1ccccc1C(C(=O)NC1CCCCC1)N(C(=O)CN1CCCCC1)c1cccc(F)c1 (centres unmarked) [Compound 141] | 100 to 1000
C#CC(=O)N(c1cccc(F)c1)C(C(=O)NC1CCCCC1)c1ccccc1C (centres unmarked) [Compound 142] | 100 to 1000
Cc1ccccc1C(C(=O)NC1CCCCC1)N(C(=O)CN1CCc2ccccc2C1)c1cccc(F)c1 (centres unmarked) [Compound 143] | 100 to 1000
Cc1ccc(N(C(=O)Cc2cccs2)C(C(=O)NC2CCCCC2)c2ccccc2C)cc1 (centres unmarked) [Compound 144] | 100 to 1000
Cc1ccccc1C(C(=O)NC1CCCCC1)N(C(=O)Cc1cccs1)c1ccc(F)cc1 (centres unmarked) [Compound 145] | 100 to 1000
Cc1ccccc1C(C(=O)NC1CCCCC1)N(C(=O)Cc1cccs1)c1cccc(Br)c1 (centres unmarked) [Compound 146] | 100 to 1000
Cc1ccccc1C(C(=O)NC1CCCCC1)N(C(=O)Cc1cccs1)c1ccccc1Cl (centres unmarked) [Compound 147] | 100 to 1000
Cc1ccccc1C(C(=O)NC1CCCCC1)N(C(=O)Cc1cccs1)c1ccc(Cl)cc1 (centres unmarked) [Compound 148] | 100 to 1000
Cc1ccccc1C(C(=O)NC1CCCCC1)N(C(=O)Cc1cccs1)c1ccc2c(c1)OCCO2 (centres unmarked) [Compound 149] | 100 to 1000
Cc1ccccc1C(C(=O)NC1CCCCC1)N(C(=O)Cc1ccsc1)c1cccc(F)c1 (centres unmarked) [Compound 150] | ≤ 100
Cc1ccccc1C(C(=O)NC1CCCCC1)N(C(=O)Cn1nnc2ccccc21)c1cccc(F)c1 (centres unmarked) [Compound 151] | 100 to 1000
Cc1ccccc1C(C(=O)NC1CCCCC1)N(C(=O)CNCc1ccccc1)c1cccc(F)c1 (centres unmarked) [Compound 152] | 100 to 1000
Cc1ccccc1C(C(=O)NC1CCCCC1)N(C(=O)CN1CCc2ccccc21)c1cccc(F)c1 (centres unmarked) [Compound 153] | 100 to 1000
Cc1ccccc1C(C(=O)NC1CCCCC1)N(C(=O)CNCCc1ccccc1)c1cccc(F)c1 (centres unmarked) [Compound 154] | 100 to 1000
Cc1ccccc1C(C(=O)NC1CCCCC1)N(C(=O)CNc1ccccc1)c1cccc(F)c1 (centres unmarked) [Compound 155] | ≤ 100
Cc1ccccc1C(C(=O)NC1CCCCC1)N(C(=O)Cn1ccnc1)c1cccc(F)c1 (centres unmarked) [Compound 156] | 100 to 1000
Cc1ccccc1C(C(=O)NC1CCCCC1)N(Cc1cccs1)C(=O)Cn1nnc2ccccc21 (centres unmarked) [Compound 157] | 100 to 1000
Cc1ccccc1C(C(=O)NC1CCCCC1)N(C(=O)Cc1cscn1)c1cccc(F)c1 (centres unmarked) [Compound 158] | 100 to 1000
Cc1ccccc1C(C(=O)NC1CCOCC1)N(C(=O)Cc1cccs1)c1cccc(F)c1 (centres unmarked) [Compound 159] | 100 to 1000
Cc1ccccc1C(C(=O)Nc1ccccc1Br)N(C(=O)Cc1cccs1)c1cccc(F)c1 (centres unmarked) [Compound 164] | 100 to 1000
Cc1ccccc1C(C(=O)NC1CCCCC1)N(Cc1cccs1)C(=O)CN1CCCc2ccccc21 (centres unmarked) [Compound 168] | 1000 to 10000
Cc1ccccc1C(C(=O)NC1CCCCC1)N(Cc1cccs1)C(=O)CNCc1ccncc1 (centres unmarked) [Compound 169] | 100 to 1000

SMILES | IC50 [nM]
Cc1ccccc1C(C(=O)NC1CCCCC1)N(C(=O)Cc1ccc(OC(=O)N2CCN(C)CC2)cc1)c1cccc(F)c1 (centres unmarked) [Compound 277] | 1000 to 10000
O=C(NC1CCCCC1)C(c1ccccc1F)N(C(=O)CNCc1ccncc1)c1cccc(F)c1 (centres unmarked) [Compound 323] | 100 to 1000
Cc1ccccc1C(C(=O)NC1CCCCC1)N(C(=O)Cn1ccnn1)c1cccc(F)c1 (centres unmarked) [Compound 329] | 100 to 1000
Cc1ccccc1[C@@H](C(=O)NC1CCCCC1)N(C(=O)[C@H]1CCCCN1)c1cccc(F)c1 [Compound 337] | 100 to 1000
Cc1ccccc1[C@@H](C(=O)NC1CCCCC1)N(C(=O)[C@@H]1CCCN1C(=O)OC(C)(C)C)c1cccc(F)c1 [Compound 343] | 100 to 1000
CCOC(=O)N1CCCC[C@H]1C(=O)N(c1cccc(F)c1)[C@H](C(=O)NC1CCCCC1)c1ccccc1C [Compound 348] | ≤ 100
Cc1ccccc1[C@@H](C(=O)NC1CCCCC1)N(C(=O)[C@@H]1CCCCN1S(C)(=O)=O)c1cccc(F)c1 [Compound 349] | 100 to 1000
Cc1ccccc1C(C(=O)NC1CCCCC1)N(C(=O)CNC(=O)OC(C)(C)C)c1ccccc1F (centres unmarked) [Compound 352] | 100 to 1000
COC(=O)NCC(=O)N(c1ccc(F)cc1)C(C(=O)NC1CCCCC1)c1ccccc1C (centres unmarked) [Compound 353] | 100 to 1000
COC(=O)N1CCC[C@@H]1C(=O)N(c1cccc(F)c1)[C@H](C(=O)NC1CCCCC1)c1ccccc1C [Compound 355] | 100 to 1000
COC(=O)NCC(=O)N(c1ccc(F)c(F)c1)C(C(=O)NC1CCCCC1)c1ccccc1C (centres unmarked) [Compound 358] | 100 to 1000
CCOC(=O)N1CCC[C@@H]1C(=O)N(c1cccc(F)c1)[C@H](C(=O)NC1CCCCC1)c1ccccc1C [Compound 360] | 100 to 1000
Cc1ccccc1[C@@H](C(=O)NC1CCCCC1)N(C(=O)[C@@H]1CCCN1S(C)(=O)=O)c1cccc(F)c1 [Compound 362] | 100 to 1000
CNC(=O)N1CCCC[C@@H]1C(=O)N(c1cccc(F)c1)[C@H](C(=O)NC1CCCCC1)c1ccccc1C [Compound 364] | 100 to 1000
Cc1ccccc1[C@@H](C(=O)NC1CCCCC1)N(C(=O)[C@H]1CCCCN1C(=O)N(C)C)c1cccc(F)c1 [Compound 365] | 100 to 1000
Cc1ccccc1C(C(=O)NC1CCCCC1)N(C(=O)CNC(=O)OC(C)(C)C)c1cccc(F)c1 (centres unmarked) [Compound 368] | 100 to 1000
Cc1ccccc1C(C(=O)NC1CCCCC1)N(C(=O)CCNC(=O)OC(C)(C)C)c1cccc(F)c1 (centres unmarked) [Compound 369] | 100 to 1000
CC(=O)N1CCC[C@@H]1C(=O)N(c1cccc(F)c1)[C@H](C(=O)NC1CCCCC1)c1ccccc1C [Compound 371] | 100 to 1000
COC(=O)NCC(=O)N(Cc1cccs1)C(C(=O)NC1CCCCC1)c1ccccc1C (centres unmarked) [Compound 372] | 100 to 1000
CNC(=O)N1CCC[C@@H]1C(=O)N(c1cccc(F)c1)[C@H](C(=O)NC1CCCCC1)c1ccccc1C [Compound 375] | 100 to 1000
Cc1ccccc1[C@@H](C(=O)NC1CCCCC1)N(C(=O)[C@H]1CCCN1)c1cccc(F)c1 [Compound 376] | 100 to 1000
O=C(NC1CCCCC1)C(c1ccccc1Cl)N(C(=O)c1cc2ccccc2[nH]1)c1cccc(F)c1 (centres unmarked) [Compound 382] | 100 to 1000
O=C(NC1CCCCC1)C(c1ccccc1Cl)N(C(=O)Cn1cnc(Cl)c1Cl)c1cccc(F)c1 (centres unmarked) [Compound 383] | ≤ 100
N#Cc1ncn(CC(=O)N(c2cccc(F)c2)C(C(=O)NC2CCCCC2)c2ccccc2Cl)c1C#N (centres unmarked) [Compound 384] | 100 to 1000
COC(=O)N1CCOC[C@H]1C(=O)N(c1cccc(F)c1)[C@H](C(=O)NC1CCCCC1)c1ccccc1C [Compound 385] | ≤ 100
Cc1ccccc1C(C(=O)NC1CCCCC1)N(C(=O)OCc1ccccc1)c1ccccc1 (centres unmarked) [Compound 391] | 100 to 1000
Cc1ccccc1C(C(=O)NC1CCCCC1)N(C(=O)Oc1ccccc1)c1ccccc1 (centres unmarked) [Compound 392] | 100 to 1000

Tested on: U87MG cells
Assay: Cellular assay: inhibition of 2-HG production in U87MG cells (LC-MS, 48 hours)
Type: cell-based
Conditions: Homo sapiens, U-87 MG, 2-HG in media by LC-MS
Protocol: Cells (HT1080 or U87MG) were grown in T125 flasks in DMEM containing 10% FBS, 1× penicillin/streptomycin and 500 ug/mL G418 (present in U87MG cells only). They were harvested by trypsin and seeded into 96 well white bottom plates at a density of 5000 cell/well in 100 ul/well in DMEM with 10% FBS. No cells were placed in columns 1 and 12. Cells were incubated overnight at 37° C. in 5% CO2. The next day test compounds were made up at 2× the final concentration and 100 ul were added to each cell well. The final concentration of DMSO was 0.2% and the DMSO control wells were plated in row G. The plates were then placed in the incubator for 48 hours. At 48 hours, 100 ul of media was removed from each well and analyzed by LC-MS for 2-HG concentrations. The cell plate was placed back in the incubator for another 24 hours. At 72 hours post compound addition, 10 mL/plate of Promega Cell Titer Glo reagent was thawed and mixed. The cell plate was removed from the incubator and allowed to equilibrate to room temperature. Then 100 ul of Promega Cell Titer Glo reagent was added to each well of media. The cell plate was then placed on an orbital shaker for 10 minutes and then allowed to sit at room temperature for 20 minutes. The plate was then read for luminescence with an integration time of 500 ms.

SMILES | IC50 [nM]
Cc1ccccc1C(C(=O)NC1CCCCC1)N(C(=O)Cc1c[nH]c2ccccc12)c1cccc(F)c1 (centres unmarked) [Compound 126] | ≤ 250
Cc1ccccc1C(C(=O)NC1CCCCC1)N(C(=O)Cn1cnc2ccccc21)c1cccc(F)c1 (centres unmarked) [Compound 135] | 250 to 1000
Cc1ccccc1C(C(=O)NC1CCCCC1)N(C(=O)CNCCc1ccccc1)c1cccc(F)c1 (centres unmarked) [Compound 154] | 1000 to 5000
Cc1ccccc1C(C(=O)NC1CCCCC1)N(C(=O)Cc1cscn1)c1cccc(F)c1 (centres unmarked) [Compound 158] | 250 to 1000
